Earlier results on eight compounds are cited in patent publication US7449451B2, “Use of multiple antioxidant micronutrients as systemic biological radioprotective agents against potential ionizing radiation risks” (priority 2002, dated 2008).

For series [1], the system named is mice.
For series [2] the following is noted: in vivo.
Series [3] relates to animals.
Series [4] relates to mitotic cells. Conditions: mitotic cells treated with cysteamine.
The test system of series [5] is human beings.
The subject of series [6] is mammalian cells in culture.
Series [7] relates to animals and humans.
In series [8] the test system is glutathione.

Consider vitamin E, for which, in series [1], the “protection against lethal doses of cobalt-60” value is “good protection”.

For the compound `N[C@@H](CCC(=O)N[C@@H](CS)C(=O)NCC(=O)O)C(=O)O` [Glutathione, glutathione], the “hydrolysis in the intestine when ingested” value in series [2] is “completely hydrolyzed in the intestine”.

As to `NCCS` [cysteamine], the “protection against bone marrow and gastrointestinal radiation syndromes” value in series [3] was “protects animals against bone marrow (2, 31) and gastrointestinal (32) radiation syndromes”. In addition, the “resistance of mitotic cells to radiation” value in series [4] is listed as “became very resistant to radiation”. Moreover, the “toxicity when administered to human beings” value in series [5] (humans) is recorded as “extremely toxic”.

Take `Cc1c(C)c2c(c(C)c1OC(=O)CCC(=O)O)CC[C@@](C)(CCC[C@H](C)CCC[C@H](C)CCCC(C)C)O2` [d-alpha tocopheryl succinate]: the “reduction of radiation-induced transformation” value in series [6] is on record as “actively reduces the incidence of radiation-induced transformation”. The radioprotectant value result in series [7] is recorded as “marked radioprotectant value”.

Turning to calcium ascorbate [vitamin C], the radioprotectant value entry in series [7] is “marked radioprotectant value”.

As for `O=C(O)CCCCC1CCSS1` (stereo not drawn) [alpha lipoic acid], in series [5], the tolerability in humans entry is “tolerated by humans very well”. Moreover, the “intracellular levels of glutathione” value in series [8] is on record as “actively increase the intracellular levels of glutathione without causing any toxicity”.

With `CC1=C(/C=C/C(C)=C/C=C/C(C)=C/C=C/C=C(C)/C=C/C=C(C)/C=C/C2=C(C)CCCC2(C)C)C(C)(C)CCC1` [natural beta-carotene, beta-carotene], in series [6], the “reduction of radiation-induced transformation” value is “most effectively reduces radiation-induced transformation”. The radioprotectant value entry in series [7] is “marked radioprotectant value”.

Take `CC(=O)N[C@@H](CS)C(=O)O` [N-acetylcysteine]: the tolerability in humans result in series [5] was “tolerated by humans very well”. In addition, the “intracellular levels of glutathione” value in series [8] is listed as “actively increase the intracellular levels of glutathione without causing any toxicity”.
